ChEMBL document CHEMBL5338791, “Discovery of Novel 1,3-Diphenylpyrazine Derivatives as Potent S-Phase Kinase-Associated Protein 2 (Skp2) Inhibitors for the Treatment of Cancer” (J Med Chem, 2023)

Key:
[1] = system: PC-3; test: Upregulation of p27 level in human PC-3 cells upto 10 uM by Western blot analysis; assay type: functional, cell-based; details: time 48.0 hrs, TDE = time-dependent effect
[2] = system: PC-3; test: Upregulation of p21 level in human PC-3 cells upto 10 uM by Western blot analysis; assay type: functional, cell-based; details: time 48.0 hrs, TDE = time-dependent effect
[3] = system: NCI-H1299; test: Antitumor activity against human NCI-H1299 cells assessed as cell growth inhibition incubated for 72 hrs by MTT assay; assay type: functional, cell-based; details: NCI-H1299, 72 h
[4] = system: MCF7; test: Antitumor activity against human MCF7 cells assessed as cell growth inhibition incubated for 72 hrs by MTT assay; assay type: functional, cell-based; details: MCF7, 72 h
[5] = system: MGC-803; test: Antitumor activity against human MGC-803 cells overexpressing Skp2 assessed as cell growth inhibition incubated for 72 hrs by MTT assay; assay type: functional, cell-based; details: MGC-803, 72 h
[6] = target: S-phase kinase-associated protein 2 (Homo sapiens, UniProt Q13309); test: Inhibition of Skp2 in human MGC-803 cells treated with shRNA 5'-GGACCTATCGAACTCAGTTAT-3' incubated upto 48 hrs by Western blot analysis (reference value: 7 +/- 1.1 microM); assay type: cell-based
Chain of S-phase kinase-associated protein 2 (Q13309 whole entry): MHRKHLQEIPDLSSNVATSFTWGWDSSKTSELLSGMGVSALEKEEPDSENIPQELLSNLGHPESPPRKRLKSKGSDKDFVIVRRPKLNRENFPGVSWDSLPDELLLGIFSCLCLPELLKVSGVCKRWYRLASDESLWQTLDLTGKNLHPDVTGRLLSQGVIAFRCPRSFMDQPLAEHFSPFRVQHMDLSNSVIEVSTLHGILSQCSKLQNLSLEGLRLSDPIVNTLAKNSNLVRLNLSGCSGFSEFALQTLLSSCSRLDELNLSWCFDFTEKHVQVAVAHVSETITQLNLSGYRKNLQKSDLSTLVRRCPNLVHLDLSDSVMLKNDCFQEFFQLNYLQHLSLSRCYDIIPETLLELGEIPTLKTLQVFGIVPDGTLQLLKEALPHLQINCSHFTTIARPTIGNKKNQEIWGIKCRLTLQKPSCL

[7] = system: MGC-803; test: Downregulation of Skp2 level in human MGC-803 cells incubated for 48 hrs by Western blot analysis; assay type: functional, cell-based; details: dose <= 10.0 µM
[8] = system: PC-3; test: Inhibition of cell migration in human PC-3 cells by transwell invasion assay; assay type: functional, cell-based; details: dose <= 2.0 µM
[9] = system: MGC-803; test: Induction of cell cycle arrest in human MGC-803 cells assessed as accumulation of cells at G2 phase at 5 uM incubated for 48 hrs by flow cytometry (reference value: 21.35 %); assay type: functional
[10] = system: MGC-803; test: Induction of cell cycle arrest in human MGC-803 cells assessed as accumulation of cells at G1 phase at 10 uM incubated for 48 hrs by flow cytometry (reference value: 54.46 %); assay type: functional
[11] = system: MGC-803; test: Induction of cell cycle arrest in human MGC-803 cells assessed as accumulation of cells at S phase at 10 uM incubated for 48 hrs by flow cytometry (reference value: 22.72 %); assay type: functional
[12] = system: PC-3; test: Induction of cell cycle arrest in human PC-3 cells assessed as accumulation of cells at S phase at 10 uM incubated for 24 hrs by flow cytometry (reference value: 19.7 %); assay type: functional
[13] = system: PC-3; test: Induction of cell cycle arrest in human PC-3 cells assessed as accumulation of cells at G1 phase at 10 uM incubated for 36 hrs by flow cytometry (reference value: 56.81 %); assay type: functional
[14] = system: MGC-803; test: Induction of cell cycle arrest in human MGC-803 cells assessed as accumulation of cells at G2 phase at 10 uM incubated for 6 hrs by flow cytometry (reference value: 20.64 %); assay type: functional
[15] = system: MGC-803; test: Induction of apoptosis in human MGC-803 cells assessed as nuclear fragmentation incubated for 48 hrs; assay type: functional, cell-based; details: dose <= 10.0 µM
[16] = system: MGC-803; test: Induction of apoptosis in human MGC-803 cells assessed as cell shrinkage incubated for 48 hrs; assay type: functional, cell-based; details: dose <= 10.0 µM
[17] = system: MGC-803; test: Induction of apoptosis in human MGC-803 cells assessed as late apoptotic cells at 5 uM incubated for 48 hrs by annexin V-FITC/PI staining based flow cytometry (reference value: 0.95 %); assay type: functional
[18] = system: MGC-803; test: Induction of apoptosis in human MGC-803 cells assessed as viable cells at 10 uM incubated for 48 hrs by annexin V-FITC/PI staining based flow cytometry (reference value: 98 %); assay type: functional; details: read-out: Activity
[19] = system: MGC-803; test: Induction of apoptosis in human MGC-803 cells assessed as early apoptotic cells at 10 uM incubated for 48 hrs by annexin V-FITC/PI staining based flow cytometry (reference value: 0.21 %); assay type: functional
[20] = Toxicity in NOD-SCID mouse model xenografted with human PC-3 cells assessed as change in liver histology at 10 to 50 mg/kg, IG administered once every 2 days for 21 days by H and E staining based analysis; assay type: organism-based; details: in vivo, po, 504 h, dose 10-50 mg/kg, time 21 day
[21] = Toxicity in NOD-SCID mouse model xenografted with human PC-3 cells assessed as change in lung histology at 10 to 50 mg/kg, IG administered once every 2 days for 21 days by H and E staining based analysis; assay type: organism-based; details: in vivo, po, 504 h, dose 10-50 mg/kg, time 21 day
[22] = Toxicity in NOD-SCID mouse model xenografted with human PC-3 cells assessed as change in heart histology at 10 to 50 mg/kg, IG administered once every 2 days for 21 days by H and E staining based analysis; assay type: organism-based; details: in vivo, po, 504 h, dose 10-50 mg/kg, time 21 day
[23] = Toxicity in NOD-SCID mouse model xenografted with human PC-3 cells assessed as change in spleen histology at 10 to 50 mg/kg, IG administered once every 2 days for 21 days by H and E staining based analysis; assay type: organism-based; details: in vivo, po, 504 h, dose 10-50 mg/kg, time 21 day
[24] = Metabolic stability in mouse liver microsome assessed as half life at 20 umol/L preincubated for 5 mins followed by NADPH addition measured upto 60 mins by LC-MS/MS analysis; assay type: ADME; details: liver microsomes, dose 20 µmol/L, time < 65 min

Q: For `O=C(CCl)NC1CCN(c2cnc(-c3ccccc3)c(-c3ccccc3)n2)CC1`, which Activity [1] is on record?
A: Its Activity is “Tde”.

Q: What about the Activity [2] of the same molecule?
A: The Activity was “Tde”.

Q: And the IC50 [3]?
A: Its IC50 is 7.1 µM.

Q: What about the IC50 [4] of the same molecule?
A: Its IC50 is 4.4 µM.

Q: And the IC50 [5]?
A: Its IC50 is 7 µM.

Q: What about the IC50 [6] of the same molecule?
A: Its IC50 is 39.2 µM.

Q: What about the Activity [7] of the same molecule?
A: Its Activity is “Dose-Dependent Effect”.

Q: And the inhibition [8]?
A: Its inhibition is “Dose-Dependent Effect”.

Q: What about the Activity [9] of the same molecule?
A: The Activity was 18.74%.

Q: What about the Activity [10] of the same molecule?
A: The Activity was 39.31%.

Q: What about the Activity [11] of the same molecule?
A: The Activity was 45.07%.

Q: And the Activity [12]?
A: Its Activity is 38.52%.

Q: What about the Activity [13] of the same molecule?
A: Its Activity is 33.46%.

Q: And the Activity [14]?
A: Its Activity is 17.82%.

Q: What about the Activity [15] of the same molecule?
A: Its Activity is “Dose-Dependent Effect”.

Q: What about the Activity [16] of the same molecule?
A: The Activity was “Dose-Dependent Effect”.

Q: And the Activity [17]?
A: Its Activity is 12.3%.

Q: What about the viability at 10 µM [18] of the same molecule?
A: Its viability at 10 µM is 66.9%.

Q: And the Activity [19]?
A: The Activity was 3.41%.

Q: What about the Activity [20] of the same molecule?
A: Its Activity is “Non-Toxic”.

Q: What about the Activity [21] of the same molecule?
A: The Activity was “Non-Toxic”.

Q: What about the Activity [22] of the same molecule?
A: Its Activity is “Non-Toxic”.

Q: And the Activity [23]?
A: The Activity was “Non-Toxic”.

Q: What about the half-life at 20 µM [24] of the same molecule?
A: Its half-life at 20 µM is 15.3 min.
